In patent EP0703239A1, “Aminomethylphosphonic and aminomethylphosphinic acids derivatives and their use in the treatment of degenerative articular diseases” (priority 1994, dated 1996):
Where a name gives a salt, the structure may show the parent alone. Read-outs that look alike come from different tables or passages of the source. Each block holds one compound with its values, some of them ahead of it.

Columns and labels:
Rattenlebermikrosomen = experiment: Inhibition of microsomal lipid peroxidation (malondialdehyde/thiobarbituric acid); type: biochemical, Ratte; settings: rat liver microsomes, FeSO₄ start, 10 min 37°C; read-out: IC50 Mikrosomale Lipidperoxidation
Description: 4. Hemmung der Mikrosomalen Lipidperoxidation […]
Alle Schritte werden bei 0°C durchgeführt. Die Leber einer Ratte wird, um alles Hämoglobin zu entfernen, mit 0,9 % NaCl-Lösung gründlich gespült. Die grob zerkleinerte Leber wird dann in 10 mM Tris/HCl pH 7,4; 250 mM Saccharose (10 ml Puffer/g Leber) gepottert. Zunächst wird 5 Minuten bei 600xg zentrifugiert. Der Überstand wird dann 10 min bei 12000xg zentrifugiert und wird mit festem CaCl₂ (117,6 mg/100 ml) auf eine Konzentration von 8 mM eingestellt. Durch Zentrifugieren bei 25000 xg (15 min) wird ein Mikrosomenniederschlag gewonnen. Dieser Niederschlag wird im gleichen Volumen Puffer (10 mM Tris/HCl pH 7,4; 150 mM KCl) rehomogenisiert und erneut 15 min bei 25000 xg zentrifugiert.
Ein Testansatz besteht aus 20 µl Mikrosomen (100 mg/ml), vgl. oben, gelöst in Puffer (250 mM Tris/HCl pH 6,6, 750 mM KCl), 10 µl 50 mM MgCl₂, 10 µl 200 mM Isocitronensäure, 10 µl 4mM NADP (3,028 mg/ml Wasser), 10 µl 25 mM Niacinamid, 10 µl Isocitratdehydrogenase (1:100 verdünnt) und 20 µl Wasser oder Testsubstanz. Gestartet wird die Reaktion mit 10 µl 0,25 mM FeSO₄. Die Inkubation dauert 10 Minuten und erfolgt bei 37°C. Gestoppt wird mit 500 µl eiskalter 20 %iger Trichloressigsäure. Entstandenes Malondialdehyd wird durch Zugabe von 500 µl 0,67 %iger Thiobarbitursäure und 30 Minuten Inkubation bei 90°C in eine pinkfarbene Verbindung überführt, die bei 532 nm gemessen wird. Die Extinktion im Kontrollansatz ohne Prüfpräparat wird auf 0 % Hemmung gesetzt, während das völlige Verschwinden des Signals 100 % Hemmung bedeutet.

Chondrozyten [1] = experiment: IL-1-induced chondrocytic chondrolysis in chondrocyte agarose culture, 35S-sulfate incorporation; settings: agarose cell culture with 5 u/ml human rec. IL-1 alpha; factor relative to IL-1 treated control
Chondrozyten [2] = experiment: Stimulation of cartilage matrix (proteoglycan) synthesis in chondrocyte agarose culture, 35S-sulfate incorporation; type: cell-based, Rinder; settings: for fold induction at 10 µM: Chondrocyte, read-out: Stimulationsfaktor der Proteoglykansynthese
From the text: 1. Wirksamkeit in der Synthese-Stimulierung von Knorpel-Matrix, Prüfung in der Chondrozyten-Kultur
Zellen: Den Fußgelenken frisch geschlachteter Rinder werden der hyaline Knorpel entnommen, mit Pronase (Boehringer Mannheim) und Collagenase (Sigma), die native Matrix enzymatisch abgebaut, und die Chondrozyten in 1 %iger "low melting Agarose" in 24er Multiwell-Schalen in einer Zelldichte von 4 x 10⁶ pro well ausplattiert.
Medium: Komplettes Medium enthält HAM's F12 (Biochrom KG, Berlin) und 10 % foetales Kälberserum (Boehringer Mannheim), die Testsubstanz wird in Medium gelöst, üblicherweise in einer Konzentration von 10⁻⁵ M zugegeben und bei jedem Mediumwechsel erneut zugefügt.
Versuchsdurchführung: Die Behandlung erfolgt vom dritten bis zehnten Tag der Primärkultur, am 9. […] Die dissoziative Extraktion der Proteoglykane aus der Agarose-Schicht wird mit 8M Guanidinium-Hydrochlorid und beigefügten Proteinase-Inhibitoren (Sigma) unter Schütteln bei 4° C über 24 h durchgeführt. Der Überstand wird nach Zentrifugation über eine PD 10 ®Sephadex G 25 Säule in freies und inkorporiertes Sulfat getrennt, dessen Aktivität nach Aliquotierung im β-Szintillationscounter gemessen wird.
Auswertung: Der Parameter für die Matrixproduktion der Chondrozyten ist die Menge synthetisierter Proteoglykane, gemessen als Sulfatinkorporation in cpm. Aus vier Wells pro Gruppe wird der Mittelwert errechnet. Dieser wird durch den Mittelwert der unbehandelten Kontrolle dividiert, und ergibt somit einen Stimulationsfaktor, der bei Stimulation der Matrixsynthese größer 1 ist, bei Hemmung derselben durch Substanzwirkung kleiner 1, und bei unveränderter Matrixsynthese gleich 1 ist.
Als Standard wird Diacerein eingesetzt, das unter dem Markennamen "Artodar" von der Firma Proter bzw. […] Tabelle II

[3] = system: Matrix Metalloproteasen (MMP); experiment: Inhibition of matrix metalloproteases from supernatant of PMA-induced synoviocytes, fluorogenic substrate; type: biochemical, Kaninchen
From the text: 3. Inhibierung von Matrix Metalloproteasen (MMP)
Die erfindungsgemäßen Verbindungen zeigten deutliche inhibitorische Wirkungen auf proteolytische Enzyme, die sogenannten Matrix Metalloproteasen. Dies ist von großer Bedeutung, weil diese dem Fachmann an sich bekannten Enzyme am proteolytischen Abbau der intakten Knorpelmatrix entscheidend beteiligt sind.
Kaninchen Synoviocyten (HIG-82; ATCC, Rockville, Maryland, USA) werden in Nährmedium HAM'S F12 (Sigma, Deisenhofen, Deutschland, Katalog Nr. N-6760) mit 10 % fötalem Rinder Serum (Sigma, Deisenhofen, Deutschland, Katalog Nr. F-2442), zusammen mit Penicillin 100 U/ml sowie Streptomycin 100 µg/ml, kultiviert. Nach konfluentem Zellwachstum wird die MMP Expression in serumfreiem HAM'S F12 durch Zugabe von 0,3 µmol/l Phorbol-12-Myristat-13-Acetat induziert. Nach 20 h Inkubationszeit bei 37°C wird der Überstand abgenommen.
Der Überstand wird mit Trypsin (5 µg/ml) aktiviert. Nach 15 Minuten (min) bei 37°C wird die Aktivierung durch Zugabe von 1 mmol/l Phenylmethylsulfonylfluorid (PMSF) beendet und für weitere 10 min nachinkubiert. Das Gesamtvolumen des Ansatzes beträgt 210 µl.
Messung der MMP Aktivität (Lit.: C.G. Knight et al.; FEBS Lett. 296, 263 (1992)):
20 µl des obengenannten Überstandes werden 1:10 verdünnt, und mit 240 µl Puffer (0,1 Tris/HCl pH 7,5; 0,1 M NaCl; 0,01 M CaCl₂; 0,05 % Brij) gemischt. Die Prüfsubstanz wird in der angegebenen Konzentration (s. Tabelle) zugegeben. Nach einer Inkubationszeit von 15 min wird die Reaktion durch Zugabe von 20 µmol/l Fluoreszenz-Substanz ((7-Methoxycoumarin-4-yl)acetyl-pro-Leu-Gly-Leu-[3-(2',4'-dinitrophenyl)-L-2,3-diaminopropionyl]-Ala-Arg-NH₂; Bachem, Heidelberg, Deutschland, Kat. Nr.: M-1895) gestartet. Die Reaktion wird nach 30 min durch Zugabe von 10 mmol/l EDTA beendet. Das Gesamtvolumen des Ansatzes beträgt 320 µl. Als Meßparameter dienen die Fluoreszenzintensitäten bei λex: 328 nm und […]. Um die mögliche Eigenfluoreszens der Prüfsubstanzen zu berücksichtigen, werden die Fluoreszenzintensitäten von Parallel-Messungen ohne Substrat von den Messwerten mit Substrat abgezogen. Alle Operationen erfolgen bei 20°C. Im Kontrollexperiment ohne Hemmstoff wird die Fluoreszenz entsprechen 0 % Hemmung gesetzt, während völlige Auslöschung der Fluoreszenz 100 % Hemmung bedeutet.

[4] = agarose cell culture, test substance usually 10⁻⁵ M, mean sulfate incorporation divided by untreated control (>1 = stimulation)

Compound: 1-(4-Chloranilino)-1-(3,5-di-tert.butyl-4-hydroxy-phenyl)-methanphosphonsäurediethylester [Beispiel 1]
IC50 (Rattenlebermikrosomen): 2.43 µM | Stimulationsfaktor der Proteoglykansynthese (Chondrozyten [1]): 1,5 | Stimulationsfaktor der Proteoglykansynthese (Chondrozyten [2]; agarose cell culture, test substance usually 10⁻⁵ M, mean sulfate incorporation divided by untreated control (>1 = stimulation), 10 µM): 1,4

Compound: CCCOP(=O)(OCCC)C(NCc1ccc2c(c1)OCO2)c1cc(C(C)(C)C)c(O)c(C(C)(C)C)c1 (stereo not shown) [Beispiel 2, 1-(3,4-Methylendioxybenzylamino)-1-(3,5-di-tert.butyl-4-hydroxy-phenyl)methanphosphonsäure-di-n-propylester-hydrochlorid]
IC50 (Rattenlebermikrosomen): 2.3 µM | Stimulationsfaktor der Proteoglykansynthese (Chondrozyten [1]): 4,3 | fold induction at 10 µM (Chondrozyten [2]; [4]): 1.2

IC50 (Rattenlebermikrosomen): 0.79 µM | Stimulationsfaktor der Proteoglykansynthese (Chondrozyten [1]): 1,3
Compound: CC(C)(C)c1cc(C(Nc2ccc3c(c2)OCO3)[PH](=O)O)cc(C(C)(C)C)c1O (stereo not shown) [Beispiel 3]
Hemmung der MMP ([3]; 10 µM): 3% | Hemmung der MMP ([3]; 30 µM): 20% | Hemmung der MMP ([3]; 100 µM): 83%

Compound: CCCCNC(c1cc(C(C)(C)C)c(O)c(C(C)(C)C)c1)P(=O)(OCC)OCC (stereo not shown) [Beispiel 6]
IC50 (Rattenlebermikrosomen): 2.25 µM | Stimulationsfaktor der Proteoglykansynthese (Chondrozyten [1]): 1,4 | fold induction at 10 µM (Chondrozyten [2]): 1.2

Compound: CCOP(=O)(OCC)C(NC1CCCCC1)c1cc(C(C)(C)C)c(O)c(C(C)(C)C)c1 (stereo not shown) [Beispiel 8]
IC50 (Rattenlebermikrosomen): 0.73 µM | fold induction at 10 µM (Chondrozyten [2]): 1.2

Compound: CCOP(=O)(OCC)C(NCc1ccc2c(c1)OCO2)c1cc(C(C)(C)C)c(O)c(C(C)(C)C)c1 (stereo not shown) [Beispiel 30]
Stimulationsfaktor der Proteoglykansynthese (Chondrozyten [1]): 1,5 | fold induction at 10 µM (Chondrozyten [2]): 1.4

Compound: CCOP(=O)(OCC)C(NCc1ccc(N)cc1)c1cc(C(C)(C)C)c(O)c(C(C)(C)C)c1 (stereo not shown) [Beispiel 34]
IC50 (Rattenlebermikrosomen): 0.7 µM | fold induction at 10 µM (Chondrozyten [2]): 1.2

Stimulationsfaktor der Proteoglykansynthese (Chondrozyten [1]): 2,5
Compound: CC(C)(C)c1cc(C(Nc2ccccc2)[PH](=O)O)cc(C(C)(C)C)c1O (stereo not shown) [Beispiel 36]
fold induction at 10 µM (Chondrozyten [2]; [4]): 1.2

Compound: CCOP(=O)(OCC)C(Nc1ccc(F)cc1)c1cc(C(C)(C)C)c(O)c(C(C)(C)C)c1 (stereo not shown) [Beispiel 38]
Stimulationsfaktor der Proteoglykansynthese (Chondrozyten [1]): 1,3 | fold induction at 10 µM (Chondrozyten [2]): 1.7

Compound: CCCOP(=O)(OCCC)C(Nc1ccc(Cl)cc1)c1cc(C(C)(C)C)c(O)c(C(C)(C)C)c1 (stereo not shown) [Beispiel 44]
IC50 (Rattenlebermikrosomen): 1.05 µM | Stimulationsfaktor der Proteoglykansynthese (Chondrozyten [1]): 1,5

Compound: CCOP(=O)(OCC)C(Nc1ccc(Cl)c(Cl)c1)c1cc(C(C)(C)C)c(O)c(C(C)(C)C)c1 (stereo not shown) [Beispiel 48]
IC50 (Rattenlebermikrosomen): 2.95 µM | Stimulationsfaktor der Proteoglykansynthese (Chondrozyten [1]): 1,7

Compound: CCCCOP(=O)(OCCCC)C(Nc1ccc(Cl)c(Cl)c1)c1cc(C(C)(C)C)c(O)c(C(C)(C)C)c1 (stereo not shown) [Beispiel 49]
IC50 (Rattenlebermikrosomen): > 10 µM | Stimulationsfaktor der Proteoglykansynthese (Chondrozyten [1]): 1,5 | fold induction at 10 µM (Chondrozyten [2]; [4]): 1.2

Compound: CCOP(=O)(OCC)C(Nc1ccc(C(F)(F)F)cc1)c1cc(C(C)(C)C)c(O)c(C(C)(C)C)c1 (stereo not shown) [Beispiel 51]
fold induction at 10 µM (Chondrozyten [2]): 1.6

Compound: CCOP(=O)(OCC)C(Nc1cc(C(F)(F)F)ccc1F)c1cc(C(C)(C)C)c(O)c(C(C)(C)C)c1 (stereo not shown) [Beispiel 52]
fold induction at 10 µM (Chondrozyten [2]): 1.7

Compound: CCOP(=O)(OCC)C(c1cc(C(C)(C)C)c(O)c(C(C)(C)C)c1)N(C)c1ccc(Cl)cc1 (stereo not shown) [Beispiel 54]
IC50 (Rattenlebermikrosomen): 2.8 µM | Stimulationsfaktor der Proteoglykansynthese (Chondrozyten [1]): 1,4

Compound: CCOP(=O)(OCC)C(Nc1ccc(OC)cc1)c1cc(C(C)(C)C)c(O)c(C(C)(C)C)c1 (stereo not shown) [Beispiel 57]
Stimulationsfaktor der Proteoglykansynthese (Chondrozyten [1]): 1,4 | fold induction at 10 µM (Chondrozyten [2]): 1.5

Compound: CCOP(=O)(OCC)C(Nc1ccc(OC)c(OC)c1)c1cc(C(C)(C)C)c(O)c(C(C)(C)C)c1 (stereo not shown) [Beispiel 58]
Stimulationsfaktor der Proteoglykansynthese (Chondrozyten [1]): 1,2 | fold induction at 10 µM (Chondrozyten [2]): 2.5

Compound: CCOP(C)(=O)C(Nc1ccc2c(c1)OCO2)c1cc(C(C)(C)C)c(O)c(C(C)(C)C)c1 (stereo not shown) [Beispiel 59]
Hemmung der MMP ([3]; 10 µM): 19% | Hemmung der MMP ([3]; 30 µM): 43%

Compound: CCOP(=O)(OCC)C(Nc1ccccc1C(=O)OC)c1cc(C(C)(C)C)c(O)c(C(C)(C)C)c1 (stereo not shown) [Beispiel 65]
IC50 (Rattenlebermikrosomen): 0.73 µM | fold induction at 10 µM (Chondrozyten [2]): 1.3

Compound: CCOP(=O)(OCC)C(Nc1ccc(S(N)(=O)=O)cc1)c1cc(C(C)(C)C)c(O)c(C(C)(C)C)c1 (stereo not shown) [Beispiel 68]
IC50 (Rattenlebermikrosomen): 2.37 µM | Stimulationsfaktor der Proteoglykansynthese (Chondrozyten [1]): 1,3

Compound: CCOP(=O)(OCC)C(Nc1ccc(NC(c2cc(C(C)(C)C)c(O)c(C(C)(C)C)c2)P(=O)(OCC)OCC)cc1)c1cc(C(C)(C)C)c(O)c(C(C)(C)C)c1 (stereo not shown) [Beispiel 74]
Hemmung der MMP ([3]; 10 µM): 20% | Hemmung der MMP ([3]; 30 µM): 47% | Hemmung der MMP ([3]; 50 µM): 74% | IC50 (Rattenlebermikrosomen): 1.25 µM | Stimulationsfaktor der Proteoglykansynthese (Chondrozyten [1]): 3,8

Compound: CCCCOP(=O)(OCCCC)C(Nc1ccc2ccccc2c1)c1cc(C(C)(C)C)c(O)c(C(C)(C)C)c1 (stereo not shown) [Beispiel 77]
IC50 (Rattenlebermikrosomen): 8.7 µM | Stimulationsfaktor der Proteoglykansynthese (Chondrozyten [1]): 1,3

Compound: CCOP(=O)(O)C(Nc1ccccn1)c1cc(C(C)(C)C)c(O)c(C(C)(C)C)c1 (stereo not shown) [Beispiel 78]
fold induction at 10 µM (Chondrozyten [2]): 1.4

Compound: CCOP(=O)(OCC)C(Nc1ccccn1)c1cc(C(C)(C)C)c(O)c(C(C)(C)C)c1 (stereo not shown) [Beispiel 79]
IC50 (Rattenlebermikrosomen): 2.3 µM | Stimulationsfaktor der Proteoglykansynthese (Chondrozyten [1]): 1,2 | fold induction at 10 µM (Chondrozyten [2]): 1.6

Stimulationsfaktor der Proteoglykansynthese (Chondrozyten [1]): 1,1
Compound: CC(=O)Oc1cccc2c1C(=O)c1c(OC(C)=O)cc(C(=O)O)cc1C2=O [Diacerein, reference compound]
fold induction at 10 µM (Chondrozyten [2]; [4]): 1
